US9133207B2, “Tetrandrine derivatives with substituted 5-carbon, preparation method and use thereof” (Hangzhou Bensheng Pharmaceutical Co., Ltd., priority 2011, dated 2015)
Converted amounts (≈) assume the structure as drawn.

What was measured:
[1] = test system: RPMI8226 (multiple myeloma); assay: Multiple myeloma cell growth inhibition, MTT, 72 h (Example 6); assay type: cell-based, human; details: Homo sapiens, RPMI-8226; 72 h, MTT, RPMI8226
Summary of the method: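 RPMI8226 cells (6000 per well) in RPMI 1640 with 10% FBS were exposed to a range of tetrandrine derivative concentrations for 72 h at 37 °C under 5% CO2. Viable cell concentration was then measured by MTT.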

MG63 (osteosarcoma) = assay: Solid tumor cell growth inhibition, MTT, 72 h (Example 7); assay type: cell-based, human; details: Homo sapiens; 72 h, MTT, MG-63
Summary of the method: (§1)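 Cells (4000/well) were seeded in DMEM high glucose with 10% FBS and grown 24 h at 37 °C, 5% CO2, then exposed to tetrandrine derivatives at different concentrations for 72 h. Viable cells were measured by MTT, with viability expressed as % of untreated control (100%).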

PC-3 (prostate cancer) = assay: as above; assay type: cell-based, human; details: Homo sapiens; 72 h, MTT, PC-3
Summary of the method: as §1

[2] = test system: CaES-17 (esophageal cancer cell); assay: as above; assay type: cell-based, human; details: Homo sapiens, CaEs17; 72 h, MTT, CAES-17
Summary of the method: as §1

[3] = test system: Hep-2 (laryngeal carcinoma); assay: as above; assay type: cell-based, human; details: Homo sapiens; 72 h, MTT, Hep 2
Summary of the method: as §1

[4] = test system: PANC-1 (pancreatic cancer); assay: as above; assay type: cell-based, human; details: Homo sapiens; 72 h, MTT, PANC-1
Summary of the method: as §1

[5] = test system: Huh7 (human liver cancer cell); assay: as above; assay type: cell-based; details: Homo sapiens; 72 h, MTT, Huh-7
Summary of the method: as §1

[6] = test system: U87 MG (malignant glioma cell); assay: as above; assay type: cell-based; details: Homo sapiens, U-87 MG
Summary of the method: as §1

[7] = test system: Becap37 (human breast cancer cell); assay: as above; assay type: cell-based; details: Homo sapiens; 72 h, MTT, Becap-37
Summary of the method: as §1

[8] = test system: RKO (human colon adenocarcinoma cell); assay: as above; assay type: cell-based; details: Homo sapiens; 72 h, MTT, RKO
Summary of the method: as §1

[9] = test system: Hela (human cervical cancer cell); assay: as above; assay type: cell-based; details: Homo sapiens; 72 h, MTT, Hela
Summary of the method: as §1

[10] = test system: CNE (nasopharyngeal carcinoma cell); assay: as above; assay type: cell-based; details: Homo sapiens
Summary of the method: as §1

[11] = test system: SK-OV-3 (ovarian cancer cell); assay: as above; assay type: cell-based; details: Homo sapiens
Summary of the method: as §1

[12] = test system: MGC 803 (human gastric cancer cell); assay: as above; assay type: cell-based; details: Homo sapiens
Summary of the method: as §1

A549 (human lung cancer) = assay: as above; assay type: cell-based; details: Homo sapiens; 72 h, MTT, A549
Summary of the method: as §1

[13] = test system: Jurkat (acute lymphoblastic leukemia, ALL); assay: Leukemia cell growth inhibition, MTT, 72 h (Example 5); assay type: cell-based, human; details: Homo sapiens, Jurkat; 72 h, MTT
Summary of the method: (§2)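 Growth inhibition by tetrandrine derivatives, dosed at several concentrations, was assessed via MTT after a 72-hour culture at 37° C.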

[14] = test system: K562/adr (drug-resistant, chronic myeloid leukemia, CML); assay: as above; assay type: cell-based, human; details: Homo sapiens, K562/Adr; 72 h, MTT
Summary of the method: as §2

[15] = test system: Kasumi-1 (acute myeloid leukemia M2 type, AML-M2); assay: as above; assay type: cell-based, human; details: Homo sapiens, Kasumi 1
Summary of the method: as §2

[16] = test system: H9 (acute lymphoblastic leukemia, ALL); assay: as above; assay type: cell-based, human; details: Homo sapiens; 72 h, MTT
Summary of the method: as §2

[17] = test system: NB4 (acute promyelocytic leukemia, AML); assay: as above; assay type: cell-based, human; details: Homo sapiens; 72 h, MTT
Summary of the method: as §2

Compound	IC50 [1] [µg/mL]	IC90 [1] [µg/mL]	IC50 (MG63 (osteosarcoma)) [µg/mL]	IC90 (MG63 (osteosarcoma)) [µg/mL]	IC50 (PC-3 (prostate cancer)) [µg/mL]	IC90 (PC-3 (prostate cancer)) [µg/mL]	IC50 [2] [µg/mL]	IC90 [2] [µg/mL]	IC50 [3] [µg/mL]	IC90 [3] [µg/mL]	IC50 [4] [µg/mL]	IC90 [4] [µg/mL]	IC50 [5] [µg/mL]	IC90 [5] [µg/mL]	IC50 [6] [µg/mL]	IC90 [6] [µg/mL]	IC50 [7] [µg/mL]	IC90 [7] [µg/mL]	IC50 [8] [µg/mL]	IC90 [8] [µg/mL]	other results
COc1ccc2cc1Oc1ccc(cc1)C[C@H]1c3cc(c(OC)cc3CCN1C)Oc1c(OC)c(OC)c(COC(=O)c3cccs3)c3c1[C@H](C2)N(C)CC3 [BS-TE-215]	0.87 (≈ 1.14 µM)	5.13 (≈ 6.72 µM)	6.2 (≈ 8.13 µM)	10.4 (≈ 13.6 µM)	7.08 (≈ 9.28 µM)	9 (≈ 11.8 µM)	8.69 (≈ 11.4 µM)	27 (≈ 35.4 µM)	9.9 (≈ 13 µM)	22.2 (≈ 29.1 µM)	5.11 (≈ 6.7 µM)	15 (≈ 19.7 µM)	3.54 (≈ 4.64 µM)	9.62 (≈ 12.6 µM)	3.14 (≈ 4.12 µM)	8 (≈ 10.5 µM)	8.3 (≈ 10.9 µM)	15 (≈ 19.7 µM)	6.04 (≈ 7.92 µM)	9.22 (≈ 12.1 µM)	IC50 [9]: 6.52 µg/mL (≈ 8.55 µM); IC90 [9]: 13 µg/mL (≈ 17.1 µM); IC50 [10]: 6.97 µg/mL (≈ 9.14 µM); IC90 [10]: 12.2 µg/mL (≈ 16 µM); IC50 [11]: 7.5 µg/mL (≈ 9.83 µM); IC90 [11]: > 16 µg/mL; IC50 [12]: 5.78 µg/mL (≈ 7.58 µM); IC90 [12]: 8 µg/mL (≈ 10.5 µM); IC50 (A549 (human lung cancer)): 11.9 µg/mL (≈ 15.6 µM); IC90 (A549 (human lung cancer)): > 16 µg/mL; IC50 [13]: 4.64 µg/mL (≈ 6.08 µM); IC90 [13]: 10.9 µg/mL (≈ 14.3 µM); IC50 [14]: 2.18 µg/mL (≈ 2.86 µM); IC90 [14]: 8.89 µg/mL (≈ 11.7 µM); IC50 [15]: 4.92 µg/mL (≈ 6.45 µM); IC90 [15]: 15.5 µg/mL (≈ 20.3 µM); IC50 [16]: 4.86 µg/mL (≈ 6.37 µM); IC90 [16]: 7.6 µg/mL (≈ 9.96 µM); IC50 [17]: 2.6 µg/mL (≈ 3.41 µM); IC90 [17]: 4 µg/mL (≈ 5.24 µM)
COc1ccc2cc1Oc1ccc(cc1)C[C@H]1c3cc(c(OC)cc3CCN1C)Oc1c(OC)c(OC)c(COC(=O)c3ccco3)c3c1[C@H](C2)N(C)CC3 [BS-TE-216]	0.54 (≈ 0.723 µM)	3.14 (≈ 4.2 µM)	4.5 (≈ 6.03 µM)	8.8 (≈ 11.8 µM)	4.11 (≈ 5.5 µM)	7.84 (≈ 10.5 µM)	5.36 (≈ 7.18 µM)	29.9 (≈ 40 µM)	5.42 (≈ 7.26 µM)	16 (≈ 21.4 µM)	15.8 (≈ 21.1 µM)	> 16	2.66 (≈ 3.56 µM)	4.71 (≈ 6.31 µM)	1.24 (≈ 1.66 µM)	3.74 (≈ 5.01 µM)	5.8 (≈ 7.77 µM)	13 (≈ 17.4 µM)	2.21 (≈ 2.96 µM)	4.67 (≈ 6.25 µM)	IC50 [9]: 3.82 µg/mL (≈ 5.11 µM); IC90 [9]: 10.8 µg/mL (≈ 14.4 µM); IC50 [10]: 3.86 µg/mL (≈ 5.17 µM); IC90 [10]: 13.3 µg/mL (≈ 17.8 µM); IC50 [11]: 7 µg/mL (≈ 9.37 µM); IC90 [11]: > 16 µg/mL; IC50 [12]: 2.51 µg/mL (≈ 3.36 µM); IC90 [12]: 4 µg/mL (≈ 5.36 µM); IC50 (A549 (human lung cancer)): 8.6 µg/mL (≈ 11.5 µM); IC90 (A549 (human lung cancer)): > 16 µg/mL; IC50 [13]: 2.52 µg/mL (≈ 3.37 µM); IC90 [13]: 8.03 µg/mL (≈ 10.8 µM); IC50 [14]: 3.06 µg/mL (≈ 4.1 µM); IC90 [14]: 16 µg/mL (≈ 21.4 µM); IC50 [15]: 3.15 µg/mL (≈ 4.22 µM); IC90 [15]: 8.98 µg/mL (≈ 12 µM); IC50 [16]: 2.53 µg/mL (≈ 3.39 µM); IC90 [16]: 7.29 µg/mL (≈ 9.76 µM); IC50 [17]: 1.4 µg/mL (≈ 1.87 µM); IC90 [17]: 2 µg/mL (≈ 2.68 µM)
COc1ccc2cc1Oc1ccc(cc1)C[C@H]1c3cc(c(OC)cc3CCN1C)Oc1c(OC)c(OC)c(CNC3CC3)c3c1[C@H](C2)N(C)CC3 [BS-TE-301]	0.06 (≈ 0.0867 µM)	2.95 (≈ 4.26 µM)	2 (≈ 2.89 µM)	3.8 (≈ 5.49 µM)	3.02 (≈ 4.36 µM)	4.68 (≈ 6.76 µM)	2.93 (≈ 4.23 µM)	22.3 (≈ 32.2 µM)	3.5 (≈ 5.06 µM)	12.5 (≈ 18 µM)	2.79 (≈ 4.03 µM)	7.35 (≈ 10.6 µM)	1.27 (≈ 1.84 µM)	2.4 (≈ 3.47 µM)	0.69 (≈ 0.997 µM)	3.05 (≈ 4.41 µM)	2.3 (≈ 3.32 µM)	5.6 (≈ 8.09 µM)	1.22 (≈ 1.76 µM)	2.94 (≈ 4.25 µM)	IC50 [9]: 1.97 µg/mL (≈ 2.85 µM); IC90 [9]: 3.83 µg/mL (≈ 5.54 µM); IC50 [10]: 3.7 µg/mL (≈ 5.35 µM); IC90 [10]: 6.2 µg/mL (≈ 8.96 µM); IC50 [11]: 3.77 µg/mL (≈ 5.45 µM); IC90 [11]: 24.3 µg/mL (≈ 35.1 µM); IC50 [12]: 1.74 µg/mL (≈ 2.51 µM); IC90 [12]: 7.1 µg/mL (≈ 10.3 µM); IC50 (A549 (human lung cancer)): 5.1 µg/mL (≈ 7.37 µM); IC90 (A549 (human lung cancer)): > 16 µg/mL; IC50 [13]: 1.09 µg/mL (≈ 1.58 µM); IC90 [13]: 6.61 µg/mL (≈ 9.55 µM); IC50 [14]: 0.49 µg/mL (≈ 0.708 µM); IC90 [14]: 2.81 µg/mL (≈ 4.06 µM); IC50 [15]: 1.67 µg/mL (≈ 2.41 µM); IC90 [15]: 5.53 µg/mL (≈ 7.99 µM); IC50 [16]: 1.02 µg/mL (≈ 1.47 µM); IC90 [16]: 2.12 µg/mL (≈ 3.06 µM); IC50 [17]: 0.8 µg/mL (≈ 1.16 µM); IC90 [17]: 2 µg/mL (≈ 2.89 µM)
